Source: ChEMBL document CHEMBL1201862, “PubChem BioAssay data set” (2004)
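Interpolation was linear, between the two tested concentrations surrounding the appropriate level; five concentrations were tested over 48 hours in 96-well plates. GI50 = concentration required for 50% inhibition of growth.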 Activity calls are given as the source filed them. No stated cut-off is given here; in the data, active = GI50 up to about 1.1 µM and inactive = higher.

What was measured:
Experiment in all cases: NCI-60 cell line screen, 48 h
UO-31 = system: UO-31
SF-539 = system: SF-539
NCI-H460 = system: NCI-H460
OVCAR-4 = system: OVCAR-4
HCT-116 = system: HCT-116
ACHN = system: ACHN
NCI-H23 = system: NCI-H23
Malme-3M = system: Malme-3M
OVCAR-5 = system: OVCAR-5
UACC-62 = system: UACC-62
MDA-MB-435 = system: MDA-MB-435
SF-295 = system: SF-295
MDA-MB-231 = system: MDA-MB-231
SNB-75 = system: SNB-75
SK-MEL-5 = system: SK-MEL-5
A498 = system: A498
HOP-62 = system: HOP-62
M14 = system: M14
SW-620 = system: SW-620
T47D = system: T47D
SR = system: SR
LOX IMVI = system: LOX IMVI
HOP-92 = system: HOP-92
MCF7 = system: MCF7
TK-10 = system: TK-10
NCI-H226 = system: NCI-H226
PC-3 = system: PC-3
MDA-N = system: MDA-N
HCT-15 = system: HCT-15
SK-OV-3 = system: SK-OV-3
BT-549 = system: BT-549
A549 = system: A549
IGROV-1 = system: IGROV-1
SN12C = system: SN12C
OVCAR-3 = system: OVCAR-3
OVCAR-8 = system: OVCAR-8
SNB-19 = system: SNB-19
COLO 205 = system: COLO 205
KM12 = system: KM12
MOLT-4 = system: MOLT-4
CCRF-CEM = system: CCRF-CEM
HL-60 = system: HL-60
SK-MEL-28 = system: SK-MEL-28
DU-145 = system: DU-145
NCI-H522 = system: NCI-H522
786-0 = system: 786-0
SF-268 = system: SF-268
U-251 = system: U-251
Hs-578T = system: Hs-578T
HT-29 = system: HT-29
K562 = system: K562
RXF 393 = system: RXF 393
EKVX = system: EKVX
NCI/ADR-RES = system: NCI/ADR-RES
UACC-257 = system: UACC-257
SK-MEL-2 = system: SK-MEL-2
CAKI-1 = system: CAKI-1
RPMI-8226 = system: RPMI-8226

Structure (SMILES): O=C1Cc2c([nH]c3cc(Br)ccc23)-c2ccccc2N1
- GI50 (UO-31): 17.6 µM (inactive)
- GI50 (SF-539): 16.2 µM (inactive)
- GI50 (NCI-H460): 15.5 µM (inactive)
- GI50 (OVCAR-4): 10.3 µM (inactive)
- GI50 (HCT-116): 3.4 µM (inactive)
- GI50 (ACHN): 17.5 µM (inactive)
- GI50 (NCI-H23): 11.6 µM (inactive)
- GI50 (Malme-3M): 20.8 µM (inactive)
- GI50 (OVCAR-5): 9.51 µM (inactive)
- GI50 (UACC-62): 12.6 µM (inactive)
- GI50 (MDA-MB-435): 26.5 µM (inactive)
- GI50 (SF-295): 22.5 µM (inactive)
- GI50 (MDA-MB-231): 22.8 µM (inactive)
- GI50 (SNB-75): 23.8 µM (inactive)
- GI50 (SK-MEL-5): 16 µM (inactive)
- GI50 (A498): 21.5 µM (inactive)
- GI50 (HOP-62): 11.7 µM (inactive)
- GI50 (M14): 18.5 µM (inactive)
- GI50 (SW-620): 6.81 µM (inactive)
- GI50 (T47D): 10.9 µM (inactive)
- GI50 (SR): 21.9 µM (inactive)
- GI50 (LOX IMVI): 2.9 µM (inactive)
- GI50 (HOP-92): 31.1 µM (inactive)
- GI50 (MCF7): 34.6 µM (inactive)
- GI50 (TK-10): 29.3 µM (inactive)
- GI50 (NCI-H226): 6.98 µM (inactive)
- GI50 (PC-3): 3.56 µM (inactive)
- GI50 (MDA-N): 30.1 µM (inactive)
- GI50 (HCT-15): 4.21 µM
- GI50 (SK-OV-3): 19.9 µM (inactive)
- GI50 (BT-549): 17.2 µM (inactive)
- GI50 (A549): 15.8 µM (inactive)
- GI50 (IGROV-1): 16.4 µM (inactive)
- GI50 (SN12C): 18.5 µM (inactive)
- GI50 (OVCAR-3): 19.6 µM (inactive)
- GI50 (OVCAR-8): 18.4 µM (inactive)
- GI50 (SNB-19): 21.9 µM (inactive)
- GI50 (COLO 205): 19.2 µM (inactive)
- GI50 (KM12): 18.6 µM (inactive)
- GI50 (MOLT-4): 3.56 µM (inactive)
- GI50 (CCRF-CEM): 2.19 µM (inactive)
- GI50 (HL-60): 58.2 µM (inactive)
- GI50 (SK-MEL-28): > 100 µM (inactive)
- GI50 (DU-145): 21.4 µM (inactive)
- GI50 (NCI-H522): 15 µM (inactive)
- GI50 (786-0): 36 µM (inactive)
- GI50 (SF-268): 25.2 µM (inactive)
- GI50 (U-251): 14.4 µM (inactive)
- GI50 (Hs-578T): 14.8 µM (inactive)
- GI50 (HT-29): 13.9 µM (inactive)
- GI50 (K562): 4.09 µM (inactive)
- GI50 (RXF 393): 3.24 µM (inactive)

Structure (SMILES): c1ccc(SC(Sc2ccccc2)c2ccc3c(c2)OCO3)cc1
- GI50 (UO-31): > 100 µM (inactive)
- GI50 (NCI-H460): > 100 µM (inactive)
- GI50 (OVCAR-4): > 100 µM (inactive)
- GI50 (HCT-116): > 100 µM (inactive)
- GI50 (ACHN): > 100 µM (inactive)
- GI50 (NCI-H23): > 100 µM (inactive)
- GI50 (Malme-3M): > 100 µM (inactive)
- GI50 (OVCAR-5): > 100 µM (inactive)
- GI50 (UACC-62): > 100 µM (inactive)
- GI50 (MDA-MB-435): > 100 µM (inactive)
- GI50 (SF-295): > 100 µM (inactive)
- GI50 (MDA-MB-231): > 100 µM (inactive)
- GI50 (SK-MEL-5): > 100 µM (inactive)
- GI50 (A498): 90.2 µM (inactive)
- GI50 (EKVX): 37.2 µM (inactive)
- GI50 (HOP-62): > 100 µM (inactive)
- GI50 (M14): > 100 µM (inactive)
- GI50 (SW-620): > 100 µM (inactive)
- GI50 (T47D): > 100 µM (inactive)
- GI50 (SR): > 100 µM (inactive)
- GI50 (LOX IMVI): > 100 µM (inactive)
- GI50 (HOP-92): 16.3 µM (inactive)
- GI50 (TK-10): > 100 µM (inactive)
- GI50 (NCI-H226): 23.6 µM (inactive)
- GI50 (PC-3): > 100 µM (inactive)
- GI50 (MDA-N): 88.9 µM (inactive)
- GI50 (HCT-15): > 100 µM
- GI50 (BT-549): > 100 µM (inactive)
- GI50 (A549): > 100 µM (inactive)
- GI50 (IGROV-1): > 100 µM (inactive)
- GI50 (SN12C): > 100 µM (inactive)
- GI50 (OVCAR-3): 60.3 µM (inactive)
- GI50 (OVCAR-8): > 100 µM (inactive)
- GI50 (NCI/ADR-RES): > 100 µM (inactive)
- GI50 (UACC-257): > 100 µM (inactive)
- GI50 (SNB-19): > 100 µM (inactive)
- GI50 (KM12): > 100 µM (inactive)
- GI50 (MOLT-4): 38.1 µM (inactive)
- GI50 (CCRF-CEM): > 100 µM (inactive)
- GI50 (HL-60): > 100 µM (inactive)
- GI50 (SK-MEL-2): > 100 µM (inactive)
- GI50 (CAKI-1): > 100 µM (inactive)
- GI50 (SK-MEL-28): > 100 µM (inactive)
- GI50 (DU-145): > 100 µM (inactive)
- GI50 (NCI-H522): 85.9 µM (inactive)
- GI50 (786-0): > 100 µM (inactive)
- GI50 (SF-268): 93.1 µM (inactive)
- GI50 (U-251): > 100 µM (inactive)
- GI50 (Hs-578T): > 100 µM (inactive)
- GI50 (HT-29): 65.2 µM (inactive)
- GI50 (K562): > 100 µM (inactive)
- GI50 (RXF 393): > 100 µM (inactive)

Structure (SMILES): O=S(=O)(O)c1ccc2c(/N=N/c3cccc4ccccc34)c(O)c(S(=O)(=O)O)cc2c1
- GI50 (UO-31): > 100 µM (inactive)
- GI50 (RPMI-8226): > 100 µM (inactive)
- GI50 (OVCAR-4): > 100 µM (inactive)
- GI50 (HCT-116): > 100 µM (inactive)
- GI50 (ACHN): > 100 µM (inactive)
- GI50 (NCI-H23): > 100 µM (inactive)
- GI50 (Malme-3M): > 100 µM (inactive)
- GI50 (OVCAR-5): > 100 µM (inactive)
- GI50 (UACC-62): > 100 µM (inactive)
- GI50 (MDA-MB-435): > 100 µM (inactive)
- GI50 (SF-295): > 100 µM (inactive)
- GI50 (MDA-MB-231): > 100 µM (inactive)
- GI50 (SNB-75): > 100 µM (inactive)
- GI50 (SK-MEL-5): > 100 µM (inactive)
- GI50 (EKVX): > 100 µM (inactive)
- GI50 (HOP-62): > 100 µM (inactive)
- GI50 (M14): > 100 µM (inactive)
- GI50 (SW-620): > 100 µM (inactive)
- GI50 (T47D): > 100 µM (inactive)
- GI50 (LOX IMVI): > 100 µM (inactive)
- GI50 (HOP-92): > 100 µM (inactive)
- GI50 (TK-10): > 100 µM (inactive)
- GI50 (NCI-H226): > 100 µM (inactive)
- GI50 (PC-3): > 100 µM (inactive)
- GI50 (MDA-N): > 100 µM (inactive)
- GI50 (HCT-15): > 100 µM
- GI50 (SK-OV-3): > 100 µM (inactive)
- GI50 (BT-549): > 100 µM (inactive)
- GI50 (A549): > 100 µM (inactive)
- GI50 (IGROV-1): > 100 µM (inactive)
- GI50 (SN12C): > 100 µM (inactive)
- GI50 (OVCAR-3): > 100 µM (inactive)
- GI50 (OVCAR-8): > 100 µM (inactive)
- GI50 (NCI/ADR-RES): > 100 µM (inactive)
- GI50 (UACC-257): > 100 µM (inactive)
- GI50 (SNB-19): > 100 µM (inactive)
- GI50 (COLO 205): > 100 µM (inactive)
- GI50 (KM12): > 100 µM (inactive)
- GI50 (MOLT-4): > 100 µM (inactive)
- GI50 (CCRF-CEM): > 100 µM (inactive)
- GI50 (HL-60): > 100 µM (inactive)
- GI50 (SK-MEL-2): > 100 µM (inactive)
- GI50 (CAKI-1): > 100 µM (inactive)
- GI50 (SK-MEL-28): > 100 µM (inactive)
- GI50 (DU-145): > 100 µM (inactive)
- GI50 (NCI-H522): > 100 µM (inactive)
- GI50 (786-0): > 100 µM (inactive)
- GI50 (SF-268): > 100 µM (inactive)
- GI50 (U-251): > 100 µM (inactive)
- GI50 (Hs-578T): > 100 µM (inactive)
- GI50 (HT-29): > 100 µM (inactive)
- GI50 (K562): > 100 µM (inactive)
- GI50 (RXF 393): > 100 µM (inactive)
